In PubChem BioAssay (NCI):
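Five concentrations, 48 hours, 96-well plates. Definition used: TGI = concentration required for complete inhibition of growth.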

How the values were obtained:
Assay in all cases: DTP human tumour cell line panel, 48 h
[1] = test system: IGROV1 ovarian
[2] = test system: T-47D breast
[3] = test system: 786-0 renal
[4] = test system: BT-549 breast
[5] = test system: HS 578T breast
[6] = test system: NCI/ADR-RES ovarian
[7] = test system: LOX IMVI melanoma
[8] = test system: MDA-MB-435
[9] = test system: OVCAR-3 ovarian
[10] = test system: SW-620 colon
[11] = test system: MALME-3M melanoma
[12] = test system: M14 melanoma
[13] = test system: RXF 393 renal
[14] = test system: MCF7 breast
[15] = test system: DMS 114 small cell lung
[16] = test system: M19-MEL melanoma
[17] = test system: SNB-78 CNS
[18] = test system: DMS 273 small cell lung
[19] = test system: HOP-18 NSCLC
[20] = test system: KM20L2 colon

SMILES | TGI [1] [µM] | TGI [2] [µM] | TGI [3] [µM] | TGI [4] [µM] | TGI [5] [µM] | TGI [6] [µM] | TGI [7] [µM] | TGI [8] [µM] | TGI [9] [µM] | TGI [10] [µM] | TGI [11] [µM] | TGI [12] [µM] | TGI [13] [µM] | TGI [14] [µM] | TGI [15] [µM] | TGI [16] [µM] | TGI [17] [µM] | TGI [18] [µM] | TGI [19] [µM] | TGI [20] [µM]
NC(=O)NC(CC(=O)O)C(=O)O (configuration not stated) | > 100 | > 100 | > 100 | > 100 | > 100 | > 100 | > 100 | > 100 | > 100 | > 100 | > 100 | > 100 | > 100 |  |  |  |  |  |  | 
CN(C)CCCc1cccnc1 | > 100 | > 100 | > 100 | > 100 | > 100 | > 100 | > 100 | > 100 | > 100 | > 100 | > 100 | > 100 | > 100 | > 100 |  |  |  |  |  | 
Nc1ccc2cc(S(=O)(=O)O)cc(O)c2c1N=Nc1ccc(NC(=O)Nc2ccc(N=Nc3c(N)ccc4cc(S(=O)(=O)O)cc(O)c34)c(S(=O)(=O)O)c2)cc1S(=O)(=O)O | > 100 |  |  |  |  | > 100 | > 100 |  | > 100 | > 100 | > 100 |  | > 100 | > 100 | > 100 | > 100 | > 100 | > 100 | > 100 | 
O=c1[nH]c(=O)n(C2CC(O)C(COP(=O)(O)OC3CC(n4cc(F)c(=O)[nH]c4=O)OC3COP(=O)(O)OC3CC(n4cc(F)c(=O)[nH]c4=O)OC3COP(=O)(O)OC3CC(n4cc(F)c(=O)[nH]c4=O)OC3COP(=O)(O)OC3CC(n4cc(F)c(=O)[nH]c4=O)OC3COP(=O)(O)OC3CC(n4cc(F)c(=O)[nH]c4=O)OC3COP(=O)(O)OC3CC(n4cc(F)c(=O)[nH]c4=O)OC3COP(=O)(O)OC3CC(n4cc(F)c(=O)[nH]c4=O)OC3COP(=O)(O)OC3CC(n4cc(F)c(=O)[nH]c4=O)OC3COP(=O)(O)OC3CC(n4cc(F)c(=O)[nH]c4=O)OC3CO)O2)cc1F (configuration not stated) | > 50 | > 50 | > 50 | > 50 | > 50 | > 50 | > 50 | > 50 |  | > 50 |  | > 50 | > 50 | > 50 |  |  |  |  |  | 
COc1cc(C2C(Cl)C(=O)N2NC(=O)c2ccc(NC(C)=O)cc2)cc(Br)c1O (configuration not stated) | > 100 |  |  |  |  |  |  |  | > 100 | > 100 | > 100 |  |  |  |  | > 100 |  |  | > 100 | 
O=C(N1CCOCC1)C1(c2ccccc2)CCNCC1 | > 100 | > 100 | > 100 | > 100 | > 100 | > 100 | > 100 | > 100 | > 100 | > 100 | > 100 | > 100 | > 100 | > 100 |  |  |  |  |  | 
CCCCC(NC(=O)CC)C(=O)O (configuration not stated) | > 100 |  |  |  |  | > 100 | > 100 |  | > 100 | > 100 | > 100 |  |  | > 100 | > 100 | > 100 | > 100 | > 100 | > 100 | > 100
CCc1ccc(CCC(=O)O)nc1 | > 100 | > 100 | > 100 | > 100 | > 100 | > 100 | > 100 | > 100 | > 100 | > 100 | > 100 | > 100 | > 100 | > 100 |  |  |  |  |  | 
CCOc1ccc(C2=C(Cl)c3cc(OC)c(OC)cc3C2Cl)cc1 (configuration not stated) | > 100 |  |  |  |  |  | 45.1 |  | > 100 | > 100 | > 100 | > 100 |  |  | 56.2 | > 100 | > 100 | > 100 | > 100 | > 100
CC(N)C(=O)c1ccc(O)cc1 (configuration not stated) | > 100 |  | > 100 |  |  |  | > 100 |  | > 100 | > 100 | > 100 | > 100 | > 100 |  | > 100 |  | > 100 | > 100 | > 100 | > 100
COc1nc(/C=N/NC(N)=S)nc(OC)n1 | > 100 |  | > 100 |  |  |  |  |  | > 100 | > 100 | > 100 | > 100 | > 100 |  | > 100 | > 100 | > 100 | > 100 | > 100 | > 100
CC(=O)Nc1ccc(C2=N/C(=C\c3ccc(Cl)c(Cl)c3)C(=O)O2)cc1 | > 100 |  |  |  |  |  | > 100 |  | > 100 | > 100 | > 100 | > 100 | > 100 |  | > 100 | > 100 | > 100 | > 100 | > 100 | > 100
CC1C(=O)C(C)C(c2cccs2)N(N=O)C1c1cccs1 (configuration not stated) | > 100 |  |  |  |  | > 100 | > 100 |  | > 100 | > 100 | > 19.7 |  | > 100 | > 100 | > 100 | > 100 | > 100 | > 100 |  | > 100
c1ccc2c(c1)ccc1ncccc12 | > 100 | > 100 | > 100 | > 100 | > 100 | > 100 | > 100 | > 100 | > 100 | > 100 | > 100 | > 100 | > 100 | > 100 |  |  |  |  |  | 
CN1C[C@H]2[C@@H](C1=O)[C@H](c1ccc([N+](=O)[O-])cc1)ON2C | > 100 | > 100 |  |  | > 100 | > 100 | > 100 | > 100 | > 100 | > 100 |  | > 100 |  | > 100 |  |  |  |  |  | 
